Source: patent US20070299032A1, “Method and Composition for Thickening Hair” (Shiseido Company, Ltd., priority 2003, published 2007)

Assays:
Assay type in all cases: cell-based
[1] = test system: FGF-7; assay: Increased expression of FGF-7 in human dermal papilla cells by quantitative RT-PCR
Method: The human dermal papilla cells (DPC) used in the experiment consisted of DPC originating in a person that were placed in frozen storage after being isolated and cultured from human scalp provided as a by-product of plastic surgery. […] Only MEM (serum-free) was used for the control cells, and these cells were treated in the same manner. mRNA was extracted from the cultured cells with MagNAPureLC (Roche Diagnostics) at 2, 4, 8 and 24 hours after addition of adenosine followed by cDNA synthesis using the SuperScriptII reverse transcriptase kit (Invitrogen). The expressed amounts of mRNA were compared by real-time PCR using the fluorescent pigment CyberGreen I, which binds to the minor grooves of double-stranded DNA, with the LightCycler-FastStart DNA Master SYBR Green I Kit (Roche Diagnostics) by using the synthesized cDNA as a template. […] This fluorescent intensity reflects the amount of PCR product at that point in time. The amount of expressed gene was hypothesized to be that which is amplified while satisfying Y=A×2^X for the PCR product Y of the initial amount of template A during the exponential amplification period of the PCR product relative to the number of PCR cycles X, and a relative value was calculated from the number of cycles needed to obtain a given amount of PCR product. The following indicates the FGF-7 amplification primers used in this study. An RT-PCR experiment was carried out in the same manner as Experiment 1 with the exception of using two concentrations of adenosine consisting of 10 μM and 100 μM and setting the duration of adenosine treatment to 3 hours. […] The results are shown in FIGS. 4, 5 and 6, respectively.

[2] = test system: FGF-7; assay: Increased expression of FGF-7 in human immortalized dermal papilla cells by quantitative RT-PCR; conditions: human immortalized dermal papilla cells (SV40 large T antigen), adenosine, 2 hours, FIG. 8
Method: mRNA was extracted from the cultured cells with MagNAPureLC (Roche Diagnostics) at 2, 4, 8 and 24 hours after addition of adenosine followed by cDNA synthesis using the SuperScriptII reverse transcriptase kit (Invitrogen). The expressed amounts of mRNA were compared by real-time PCR using the fluorescent pigment CyberGreen I, which binds to the minor grooves of double-stranded DNA, with the LightCycler-FastStart DNA Master SYBR Green I Kit (Roche Diagnostics) by using the synthesized cDNA as a template. […] The amount of expressed gene was hypothesized to be that which is amplified while satisfying Y=A×2^X for the PCR product Y of the initial amount of template A during the exponential amplification period of the PCR product relative to the number of PCR cycles X, and a relative value was calculated from the number of cycles needed to obtain a given amount of PCR product. […]

[3] = test system: FGF-7; assay: Increased expression of FGF-7 in human outer root sheath cells by quantitative RT-PCR; conditions: adenosine 10 or 100 μM, 3 hours, FIG. 9
Method: The expressed amounts of mRNA were compared by real-time PCR using the fluorescent pigment CyberGreen I, which binds to the minor grooves of double-stranded DNA, with the LightCycler-FastStart DNA Master SYBR Green I Kit (Roche Diagnostics) by using the synthesized cDNA as a template. More specifically, a total volume of 20 μl of reaction liquid (MgCl2: 2 mM, forward and reverse primer: 0.25 μM each) was prepared according to the manual provided using the LightCycler-FastStart DNA Master SYBR Green I Kit (Roche Diagnostics), and a PCR reaction was carried out with the LightCycler (enzyme activation: 95° C./10 minutes; thermal denaturation: 95° C./15 seconds; annealing: 58° C./5 seconds; elongation reaction: 72° C./10 seconds; 40 cycles of thermal denaturation to elongation reaction) followed by monitoring fluorescent intensity at completion of the elongation reaction of each cycle. This fluorescent intensity reflects the amount of PCR product at that point in time. The amount of expressed gene was hypothesized to be that which is amplified while satisfying Y=A×2^X for the PCR product Y of the initial amount of template A during the exponential amplification period of the PCR product relative to the number of PCR cycles X, and a relative value was calculated from the number of cycles needed to obtain a given amount of PCR product. […]

[4] = CCPA 100 μM, C1-IB-MECA 50 μM, NECA 10 μM, 3 hours, FIG. 3
[5] = 100 μM, 2 hours, FIGS. 4, 5 and 6

| Compound | expression of FGF-7 (relative amount) [1, 4] | inhibition of increased FGF-7 expression by the adenosine receptor inhibitor 8-SPT ([1]; 100 μM, 2 hours) | expression of FGF-7 (relative amount) [1, 5] | other results |
| --- | --- | --- | --- | --- |
| OC[C@H]1O[C@@H](n2cnc3c(NC4CCCC4)nc(Cl)nc32)[C@H](O)[C@@H]1O [CCPA, 2-chloro-N^6-cyclopentyladenosine, reference compound] | significantly increased | – | – | – |
| CCNC(=O)[C@H]1O[C@@H](n2cnc3c(N)ncnc32)[C@H](O)[C@@H]1O [NECA, N-ethylcarboxyamidoadenosine, reference compound] | significantly increased | – | – | – |
| Cc1ccc(C2Oc3ccccc3C(=O)C2C)cc1 (stereo not drawn) [3,4′-dimethylflavanone] | – | not observed | increased expression of FGF-7 | – |
| Nc1ncnc2c1ncn2[C@@H]1O[C@H](CO)[C@@H](O)[C@H]1O [adenosine] | – | – | – | expression of FGF-7 (relative amount) ([1]; adenosine 10 μM and 100 μM, 3 hours, FIG. 2): increase dependent on the concentration of adenosine; expression of FGF-7 (relative value) ([1]; adenosine 100 μM, mRNA at 2, 4, 8 and 24 hours, FIG. 1): increased considerably; expression of FGF-7 (relative amount) [2]: increased expression of FGF-7; expression of FGF-7 (relative amount) [3]: prominent increase in expression of FGF-7 |
| O=C1CC(c2ccccc2)Oc2ccccc21 (stereo not drawn) [flavanone, reference compound] | – | not observed | increased expression of FGF-7 | – |
| CC1C(=O)c2ccccc2OC1c1ccccc1 (stereo not drawn) [3-methylflavanone] | – | not observed | increased expression of FGF-7 | – |
